In assay [1] the test system is Heliothis virescens (Tobacco Budworm). Put plainly: Heliothis virescens egg/larval mortality on artificial diet, 24-well plate. The format is in vivo. Conditions: for 2-7 Observe control %: 2-7 alone; for SPAT observed control %: SPAT alone; for 1-1 observed control %: 1-1 alone; for DMET observed control %: DMET alone. As for the experimental part: Heliothis virescens (Tobacco Budworm)
Eggs (0-24 h old) are placed in 24-well microtiter plate on artificial diet and treated with test solutions (DMSO) by pipetting. After an incubation period of 4 days, samples are checked for larval mortality.
(§1) When a compound applied alone gave no control at a particular rate, it is assumed that lower rates of that compound alone also give no control. DMET=deltamethrin, SPAT=spirotetramat, 1-1 is compound 1 in Table 1, 2-7 is compound 7 in Table 2.

Assay [2] has as its system Tetranychus urticae (Two-Spotted Spider Mite). Put plainly: Tetranychus urticae mixed population mortality on sprayed bean leaf discs. The format is in vivo. Conditions: for 2-7 observed control %: 2-7 alone; for SPAT observed control %: SPAT alone.
From the text: Tetranychus urticae (Two-Spotted Spider Mite)
Bean leaf discs on agar in 24-well microtiter plates are sprayed with test solutions (DMSO). After drying, the leaf discs are infested with mite populations of mixed ages. 8 days later, discs are checked for mixed population mortality.
as §1

SMILES strings stand for the structures.

Take `N#Cc1cc(C2=NCC(c3cc(Cl)c(Cl)c(Cl)c3)(C(F)(F)F)C2)ccc1-n1cncn1` (racemic) [2-7]: the “2-7 Observe control %” value in assay [1] (0.025 ppm) stood at 0%; in assay [1] (0.05 ppm), 10%; in assay [1] (0.1 ppm), 55%; in assay [1] (0.2 ppm), 80%; in assay [1] (0.4 ppm) it was 90%. Also, the “2-7 observed control %” value in assay [2] (0.187 ppm) came out at 0%; in assay [2] (0.375 ppm), 0%; in assay [2] (0.75 ppm), 25%; in assay [2] (1.5 ppm), 75%; in assay [2] (3.0 ppm), 80%.

Regarding `CCOC(=O)OC1=C(c2cc(C)ccc2C)C(=O)N[C@]12CC[C@@H](OC)CC2` [SPAT, spirotetramat], the “SPAT observed control %” value in assay [1] (1.56 ppm), in assay [1] (3.12 ppm), in assay [1] (3.125 ppm), in assay [1] (6.25 ppm), in assay [1] (12.5 ppm) and in assay [1] (25 ppm) was 0% in each case. The “SPAT observed control %” value in assay [1] (50 ppm) is on record as 0%; in assay [1] (100 ppm), 0%; in assay [1] (200 ppm), 60%; in assay [2] (1.56 ppm), 0%; in assay [2] (3.125 ppm) it was 0%; in assay [2] (12.5 ppm) it was 65%. Besides, the “SPAT observed control %” value in assay [2] (25 ppm) amounted to 80%; in assay [2] (50 ppm), 85%; in assay [2] (100 ppm), 85%; in assay [2] (200 ppm), 85%.

On to `N#Cc1cc(C2=NOC(c3cc(Cl)cc(Cl)c3)(C(F)(F)F)C2)ccc1-n1cncn1` (racemic) [1-1], for which the “1-1 observed control %” value in assay [1] (0.78 ppm) was 0%; in assay [1] (1.56 ppm), 0%; in assay [1] (3.125 ppm), 45%; in assay [1] (6.25 ppm), 85%; in assay [1] (12.5 ppm), 85%; in assay [1] (25 ppm) it was 90%.

On to `CC1(C)[C@H](C(=O)O[C@H](C#N)c2cccc(Oc3ccccc3)c2)[C@@H]1C=C(Br)Br` [DMET, deltamethrin], for which the “DMET observed control %” value in assay [1] (0.0125 ppm), in assay [1] (0.025 ppm), in assay [1] (0.05 ppm), in assay [1] (0.1 ppm), in assay [1] (0.2 ppm) and in assay [1] (0.4 ppm) was 0% each time. In addition, the “DMET observed control %” value in assay [1] (0.8 ppm) is listed as 0%.

These data come from patent US9510595B2, “Pesticidal mixtures” (Syngenta Participations AG, priority 2012, dated 2016).
